Measured values taken from patent US11512090B2, “Muscarinic acetylcholine M1 receptor antagonists” (PIPELINE THERAPEUTICS, INC., priority 2018, dated 2022).
Like-named read-outs stand apart in the source and are kept apart here.

Columns and labels:
Assay type in all cases: cell-based
human M1 receptor = target: T1, human M1 receptor (Homo sapiens, UniProt P11229); assay: In vitro functional assay of muscarinic acetylcholine receptor activity (aequorin calcium flux, antagonist mode vs EC80 acetylcholine), M1
T1 sequence (P11229 1-460): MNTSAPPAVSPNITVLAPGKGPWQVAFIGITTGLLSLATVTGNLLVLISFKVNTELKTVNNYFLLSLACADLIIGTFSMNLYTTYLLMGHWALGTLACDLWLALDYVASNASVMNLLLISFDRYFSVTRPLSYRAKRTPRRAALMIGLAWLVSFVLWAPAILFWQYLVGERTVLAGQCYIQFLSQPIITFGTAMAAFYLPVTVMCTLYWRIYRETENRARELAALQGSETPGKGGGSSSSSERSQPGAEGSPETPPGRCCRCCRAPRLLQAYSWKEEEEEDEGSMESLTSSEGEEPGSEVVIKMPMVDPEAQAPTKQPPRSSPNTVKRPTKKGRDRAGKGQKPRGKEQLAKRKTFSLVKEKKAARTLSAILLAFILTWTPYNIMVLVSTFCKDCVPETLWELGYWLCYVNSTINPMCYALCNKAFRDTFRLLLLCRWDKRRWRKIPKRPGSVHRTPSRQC
How it was run: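 CHO-K1 cells stably co-expressing human M1 and aequorin were loaded with 5 uM coelenterazine h for 4 h at room temperature in the dark. IC50 came from the drop in luminescence.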

M2 = target: T2, M2 (Homo sapiens, UniProt P08172); assay: In vitro functional assay of muscarinic acetylcholine receptor activity, M2
T2 sequence (P08172 1-466): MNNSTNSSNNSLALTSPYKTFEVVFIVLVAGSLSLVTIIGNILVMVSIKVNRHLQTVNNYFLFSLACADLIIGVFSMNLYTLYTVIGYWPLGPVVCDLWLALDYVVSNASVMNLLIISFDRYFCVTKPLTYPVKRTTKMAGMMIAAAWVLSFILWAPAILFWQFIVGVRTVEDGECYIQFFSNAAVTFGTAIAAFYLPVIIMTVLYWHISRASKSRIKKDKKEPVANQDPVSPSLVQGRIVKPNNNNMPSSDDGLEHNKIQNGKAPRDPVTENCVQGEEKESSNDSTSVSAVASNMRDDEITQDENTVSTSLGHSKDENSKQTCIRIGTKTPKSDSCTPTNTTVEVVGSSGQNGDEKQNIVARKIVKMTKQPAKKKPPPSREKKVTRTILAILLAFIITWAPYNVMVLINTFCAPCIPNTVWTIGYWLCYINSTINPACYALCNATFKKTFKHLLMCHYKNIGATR

M3 = M3 (Homo sapiens, UniProt P20309); assay: In vitro functional assay of muscarinic acetylcholine receptor activity, M3; conditions: antagonist IC50 at M3; read-out: M3 IC50
M3, sequence (P20309 whole entry): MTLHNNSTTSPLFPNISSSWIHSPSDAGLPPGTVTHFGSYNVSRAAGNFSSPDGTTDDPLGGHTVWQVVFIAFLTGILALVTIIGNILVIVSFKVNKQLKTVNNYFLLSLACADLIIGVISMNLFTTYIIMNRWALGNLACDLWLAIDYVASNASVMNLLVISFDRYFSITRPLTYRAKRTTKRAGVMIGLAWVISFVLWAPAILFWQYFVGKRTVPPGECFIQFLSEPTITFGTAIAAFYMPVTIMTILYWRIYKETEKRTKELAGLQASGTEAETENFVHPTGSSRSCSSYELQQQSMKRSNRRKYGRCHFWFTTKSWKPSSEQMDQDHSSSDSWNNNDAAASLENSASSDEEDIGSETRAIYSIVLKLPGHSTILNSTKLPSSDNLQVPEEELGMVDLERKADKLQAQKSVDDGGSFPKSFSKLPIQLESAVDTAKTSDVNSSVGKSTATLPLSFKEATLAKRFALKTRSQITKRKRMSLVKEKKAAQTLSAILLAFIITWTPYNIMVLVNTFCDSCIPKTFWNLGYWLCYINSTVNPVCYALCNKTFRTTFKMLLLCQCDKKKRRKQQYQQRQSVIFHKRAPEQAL

[1] = antagonist IC50 at M2, read-out: M2 IC50
[2] = CHO-K1 cells stably expressing human M1 receptor with Aequorin, decrease in EC80 acetylcholine response, read-out: M1 IC50

| IC50 (M2; [1]) | IC50 (M3) | IC50 (human M1 receptor; [2]) | Structure (SMILES) | IC50 (human M1 receptor) | IC50 (M2) |
| --- | --- | --- | --- | --- | --- |
| 1000 to 10000 nM | 1000 to 10000 nM | 1000 to 10000 nM | Cc1cc(F)cnc1N1CCN(C(=O)COCc2cccc3ncccc23)[C@@H](C)C1 [Example 87, (S)-1-(4-(5-fluoro-3-methylpyridin-2-yl)-2-methylpiperazin-1-yl)-2-(quinolin-5-ylmethoxy)ethan-1-one] |  |  |
| 1000 to 10000 nM | > 10000 nM | 1000 to 10000 nM | Cc1cc(F)cnc1N1CCN(C(=O)COCc2cccc3ncsc23)[C@@H](C)C1 [Example 88, (S)-2-(benzo[d]thiazol-7-ylmethoxy)-1-(4-(5-fluoro-3-methylpyridin-2-yl)-2-methylpiperazin-1-yl)ethan-1-one] |  |  |
| > 10000 nM | > 10000 nM | 1000 to 10000 nM | Cc1cc(F)cnc1N1CCN(C(=O)CNCc2cccc3ncsc23)[C@@H](C)C1 [Example 89, (S)-2-((benzo[d]thiazol-7-ylmethyl)amino)-1-(4-(5-fluoro-3-methylpyridin-2-yl)-2-methylpiperazin-1-yl)ethan-1-one] |  |  |
| 1000 to 10000 nM | > 10000 nM | > 10000 nM | C[C@H]1CN(c2ncc(F)cc2C#N)CCN1C(=O)CCCc1cccc2ncccc12 [Example 90, (S)-5-fluoro-2-(3-methyl-4-(4-(quinolin-5-yl)butanoyl)piperazin-1-yl)nicotinonitrile] |  |  |
| 1000 to 10000 nM | 1000 to 10000 nM | 100 to 1000 nM | C[C@H]1CN(c2ncc(F)cc2F)CCN1C(=O)CCCc1cccc2ncccc12 [Example 91, (S)-1-(4-(3,5-difluoropyridin-2-yl)-2-methylpiperazin-1-yl)-4-(quinolin-5-yl)butan-1-one] |  |  |
| 100 to 1000 nM | 1000 to 10000 nM | < 100 nM | COc1cnccc1N1CCN(C(=O)CCCc2cccc3ncccc23)[C@@H](C)C1 [Example 92, (S)-1-(4-(3-methoxypyridin-4-yl)-2-methylpiperazin-1-yl)-4-(quinolin-5-yl)butan-1-one] |  |  |
| > 10000 nM | > 10000 nM | > 10000 nM | Cc1ncccc1N1CCN(C(=O)CCCc2cccc3ncccc23)[C@@H](C)C1 [Example 93, (S)-1-(2-methyl-4-(2-methylpyridin-3-yl)piperazin-1-yl)-4-(quinolin-5-yl)butan-1-one] |  |  |
| 100 to 1000 nM | 1000 to 10000 nM | 100 to 1000 nM | Cc1cc(F)cnc1N1CCN(C(=O)CCCc2cccc3ncc(CO)cc23)[C@@H](C)C1 [Example 94, (S)-1-(4-(5-fluoro-3-methylpyridin-2-yl)-2-methylpiperazin-1-yl)-4-(3-(hydroxymethyl)quinolin-5-yl)butan-1-one] |  |  |
| 1000 to 10000 nM | > 10000 nM | 100 to 1000 nM | Cc1cc(F)cnc1N1CCN(C(=O)CCS(=O)(=O)c2cccc3ncccc23)[C@@H](C)C1 [Example 96, (S)-1-(4-(5-fluoro-3-methylpyridin-2-yl)-2-methylpiperazin-1-yl)-3-(quinolin-5-ylsulfonyl)propan-1-one] |  |  |
| 1000 to 10000 nM | 1000 to 10000 nM | 1000 to 10000 nM | Cc1cc(F)cnc1N1CCN(C(=O)CCCS(=O)(=O)c2cccc3ncsc23)[C@@H](C)C1 [Example 97, (S)-4-(benzo[d]thiazol-7-ylsulfonyl)-1-(4-(5-fluoro-3-methylpyridin-2-yl)-2-methylpiperazin-1-yl)butan-1-one] |  |  |
| 1000 to 10000 nM | > 10000 nM | 1000 to 10000 nM | Cc1nc2cccc(S(=O)(=O)CCCC(=O)N3CCN(c4ncc(F)cc4C)C[C@@H]3C)c2o1 [Example 98, (S)-1-(4-(5-fluoro-3-methylpyridin-2-yl)-2-methylpiperazin-1-yl)-4-((2-methylbenzo[d]oxazol-7-yl)sulfonyl)butan-1-one] |  |  |
| 1000 to 10000 nM | > 10000 nM | 1000 to 10000 nM | O=C(CCS(=O)(=O)c1cccc2ncsc12)N1CCN(c2ccnc(C(F)(F)F)c2)CC1 [Example 99, 3-(benzo[d]thiazol-7-ylsulfonyl)-1-(4-(2-(trifluoromethyl)pyridin-4-yl)piperazin-1-yl)propan-1-one] |  |  |
| 1000 to 10000 nM | > 10000 nM | 100 to 1000 nM | C[C@H]1CN(c2cnccc2Cl)CCN1C(=O)CCS(=O)(=O)c1cccc2ncsc12 [Example 101, (S)-3-(benzo[d]thiazol-7-ylsulfonyl)-1-(4-(4-chloropyridin-3-yl)-2-methylpiperazin-1-yl)propan-1-one] |  |  |
| 1000 to 10000 nM | 1000 to 10000 nM | < 100 nM | O=C(CCS(=O)(=O)c1cccc2ncsc12)N1CCN(c2ccc(C(F)(F)F)cn2)CC1 [Example 102, 3-(benzo[d]thiazol-7-ylsulfonyl)-1-(4-(5-(trifluoromethyl)pyridin-2-yl)piperazin-1-yl)propan-1-one] |  |  |
| 1000 to 10000 nM | 1000 to 10000 nM | 1000 to 10000 nM | O=C(CCS(=O)(=O)c1cccc2ncsc12)N1CCN(c2c(Cl)cncc2Cl)CC1 [Example 105, 3-(benzo[d]thiazol-7-ylsulfonyl)-1-(4-(3,5-dichloropyridin-4-yl)piperazin-1-yl)propan-1-one] |  |  |
| 1000 to 10000 nM | > 10000 nM | 1000 to 10000 nM | O=C(CCS(=O)(=O)c1cccc2nccn12)N1CCN(c2ccc(C(F)(F)F)cn2)CC1 [Example 106, 3-(imidazo[1,2-a]pyridin-5-ylsulfonyl)-1-(4-(5-(trifluoromethyl)pyridin-2-yl)piperazin-1-yl)propan-1-one] |  |  |
| > 10000 nM | 1000 to 10000 nM | 1000 to 10000 nM | Cc1cncc(Cl)c1N1CCN(C(=O)CCS(=O)(=O)c2cccc3ncsc23)CC1 [Example 107, 3-(benzo[d]thiazol-7-ylsulfonyl)-1-(4-(3-chloro-5-methylpyridin-4-yl)piperazin-1-yl)propan-1-one] |  |  |
| > 10000 nM | 1000 to 10000 nM | 100 to 1000 nM | Cc1cncc(Cl)c1N1CCN(C(=O)CCS(=O)(=O)c2cccc3ncsc23)[C@@H](C)C1 [Example 108, (S)-3-(benzo[d]thiazol-7-ylsulfonyl)-1-(4-(3-chloro-5-methylpyridin-4-yl)-2-methylpiperazin-1-yl)propan-1-one] |  |  |
| > 10000 nM | > 10000 nM | 1000 to 10000 nM | Cc1nc2cccc(S(=O)(=O)CCC(=O)N3CCN(c4ccc(C(F)(F)F)cn4)CC3)c2o1 [Example 109, 3-((2-methylbenzo[d]oxazol-7-yl)sulfonyl)-1-(4-(5-(trifluoromethyl)pyridin-2-yl)piperazin-1-yl)propan-1-one] |  |  |
| > 10000 nM | 1000 to 10000 nM | 100 to 1000 nM | O=C(CCS(=O)(=O)c1cccc2ncsc12)N1CCN(c2ccc(Cl)cn2)CC1 [Example 110, 3-(benzo[d]thiazol-7-ylsulfonyl)-1-(4-(5-chloropyridin-2-yl)piperazin-1-yl)propan-1-one] |  |  |

| Structure (SMILES) | IC50 (M2; [1]) | IC50 (M3) | IC50 (human M1 receptor; [2]) | IC50 (human M1 receptor) | IC50 (M2) |
| --- | --- | --- | --- | --- | --- |
| O=C(CCOCc1cccc2ncsc12)N1C[C@H]2CC[C@@H](C1)N2c1ccncc1F [Example 85, 3-(benzo[d]thiazol-7-ylmethoxy)-1-((1R,5S)-8-(3-fluoropyridin-4-yl)-3,8-diazabicyclo[3.2.1]octan-3-yl)propan-1-one] | 1000 to 10000 nM | 1000 to 10000 nM |  | < 100 nM |  |
| O=C(COCc1cccc2ncsc12)N1C[C@H]2CC[C@@H](C1)N2c1ccncc1F [Example 86, 2-(benzo[d]thiazol-7-ylmethoxy)-1-((1R,5S)-8-(3-fluoropyridin-4-yl)-3,8-diazabicyclo[3.2.1]octan-3-yl)ethan-1-one] | 1000 to 10000 nM | > 10000 nM | 1000 to 10000 nM |  |  |
| O=C(CCS(=O)(=O)c1cccc2ncsc12)N1C[C@H]2CC[C@@H](C1)N2c1ccncc1F [Example 95, 3-(benzo[d]thiazol-7-ylsulfonyl)-1-((1R,5S)-8-(3-fluoropyridin-4-yl)-3,8-diazabicyclo[3.2.1]octan-3-yl)propan-1-one] | < 100 nM | 100 to 1000 nM |  | < 100 nM |  |
| Cc1nc2cccc(S(=O)(=O)CCC(=O)N3C[C@H]4CC[C@@H](C3)N4c3ccncc3F)c2o1 [Example 103, 1-((1R,5S)-8-(3-fluoropyridin-4-yl)-3,8-diazabicyclo[3.2.1]octan-3-yl)-3-((2-methylbenzo[d]oxazol-7-yl)sulfonyl)propan-1-one] |  | 1000 to 10000 nM |  | < 100 nM | 100 to 1000 nM |
| O=C(CCS(=O)(=O)c1cccc2nccn12)N1C[C@H]2CC[C@@H](C1)N2c1ccncc1F [Example 104, 1-((1R,5S)-8-(3-fluoropyridin-4-yl)-3,8-diazabicyclo[3.2.1]octan-3-yl)-3-(imidazo[1,2-a]pyridin-5-ylsulfonyl)propan-1-one] | 1000 to 10000 nM | 1000 to 10000 nM |  | < 100 nM |  |
